Literature values in US7419680B2, “Calcium phosphate-based materials containing zinc, magnesium, fluoride and carbonate” (New York University, priority 2003, dated 2008).

Conditions: earlier studies

For b-alanyl-L-histadanato zinc, the “bone density / bone loss in vivo” value is listed as “effective in increasing bone density or in preventing bone loss in vivo”.
